pIC50: −log10 of the molar value. Counter-ions that a name gives are not always drawn.
These molecules were tested against T1, ACC1 from rat liver (Rattus norvegicus, UniProt P11497) (assay: Direct inhibition of ACC1 activity (14C-bicarbonate incorporation)). Settings: ACC1 from rat liver.
T1 construct: The livers (for ACC1 preparation) or skeletal muscle tissue (for ACC2 preparation) are removed; from tissue; host or cells: liver of male CD rats (fasted, then fed a high sucrose diet)
Format: biochemical
In short: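 ACC1 partially purified from livers of fasted/sucrose-refed male rats by PEG and ammonium sulfate fractionation, then preincubated 30 min at 37°C with 10 mM citrate and 1.0 mM MgCl2. Reaction ran 7 min at 37°C, stopped with HCl; acid-stable radioactivity counted by scintillation; HCl-first tubes served as blanks.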

Row | Compound | pIC50
1 | O=C(O)c1ccc2c(c1)C(=O)CC1(CCN(C(=O)c3cccc(-c4cc[nH]n4)c3)CC1)O2 [Ex. N1, 4-oxo-1′-[3-(1H-pyrazol-3-yl)benzoyl]-3,4-dihydrospiro[chromene-2,4′-piperidine]-6-carboxylic acid trifluoroacetic acid salt] | 6.05

Same assay, conditions: Table of Examples M1-M36

Row | Compound | pIC50
2 | COC(=O)c1ccc2c(c1)C(=O)CC1(CCN(C(=O)c3cccc(-c4cc[nH]n4)c3)CC1)O2 [Ex. M11, methyl 4-oxo-1′-[3-(1H-pyrazol-3-yl)benzoyl]-3,4-dihydrospiro[chromene-2,4′-piperidine]-6-carboxylate] | 6.69
3 | Cc1ccc2c(c1)OC1(CCN(C(=O)c3cccc(-c4cc[nH]n4)c3)CC1)CC2=O [Ex. M12, 7-methyl-1′-[3-(1H-pyrazol-3-yl)benzoyl]spiro[chromene-2,4′-piperidin]-4(3H)-one] | 6.69
4 | O=C1CC2(CCN(C(=O)c3cccc(-c4cc[nH]n4)c3)CC2)Oc2ccc(OC(F)(F)F)cc21 [Ex. M13, 1′-[3-(1H-pyrazol-3-yl)benzoyl]-6-(trifluoromethoxy)spiro[chromene-2,4′-piperidin]-4(3H)-one] | 6.66
5 | COc1ccc2c(c1F)C(=O)CC1(CCN(C(=O)c3cccc(-c4cc[nH]n4)c3)CC1)O2 [Ex. M14, 5-fluoro-6-methoxy-1′-[3-(1H-pyrazol-3-yl)benzoyl]spiro[chromene-2,4′-piperidin]-4(3H)-one] | 6.65
6 | O=C1CC2(CCN(C(=O)c3cccc(-c4cc[nH]n4)c3)CC2)Oc2cc(Cl)ccc21 [Ex. M15, 7-chloro-1′-[3-(1H-pyrazol-3-yl)benzoyl]spiro[chromene-2,4′-piperidin]-4(3H)-one] | 6.63
7 | O=C1CC2(CCN(C(=O)c3cccc(-c4cc[nH]n4)c3)CC2)Oc2cc(Cl)cc(Cl)c21 [Ex. M16, 5,7-dichloro-1′-[3-(1H-pyrazol-3-yl)benzoyl]spiro[chromene-2,4′-piperidin]-4(3H)-one] | 6.50
8 | CC(C)NC(=O)c1ccc2c(c1)C(=O)CC1(CCN(C(=O)c3cccc(-c4cc[nH]n4)c3)CC1)O2 [Ex. M17, N-isopropyl-4-oxo-1′-[3-(1H-pyrazol-3-yl)benzoyl]3,4-dihydrospiro[chromene-2,4′-piperidine]-6-carboxamide] | 6.46
9 | COc1c(Cl)ccc2c1C(=O)CC1(CCN(C(=O)c3cccc(-c4cc[nH]n4)c3)CC1)O2 [Ex. M18, 6-chloro-5-methoxy-1′-[3-(1H-pyrazol-3-yl)benzoyl]spiro[chromene-2,4′-piperidin]-4(3H)-one] | 6.43
10 | O=C1CC2(CCN(C(=O)c3cccc(-c4cc[nH]n4)c3)CC2)Oc2ccc(C(F)(F)F)cc21 [Ex. M19, 1′-[3-(1H-pyrazol-3-yl)benzoyl]-6-(trifluoromethyl)spiro[chromene-2,4′-piperidin]-4(3H)-one] | 6.38
11 | COc1cc2c(c(OC)c1OC)C(=O)CC1(CCN(C(=O)c3cccc(-c4cc[nH]n4)c3)CC1)O2 [Ex. M21, 5,6,7-trimethoxy-1′-[3-(1H-pyrazol-3-yl)benzoyl]spiro[chromene-2,4′-piperidin]-4(3H)-one] | 6.36
12 | Cc1ccc2c(c1)C(=O)CC1(CCN(C(=O)c3cccc(-c4cc[nH]n4)c3)CC1)O2 [Ex. M23, 6-methyl-1′-[3-(1H-pyrazol-3-yl)benzoyl]spiro[chromene-2,4′-piperidin]-4(3H)-one] | 6.32
13 | O=C1CC2(CCN(C(=O)c3cccc(-c4cc[nH]n4)c3)CC2)Oc2cc(F)c(Cl)cc21 [Ex. M24, 6-chloro-7-fluoro-1′-[3-(1H-pyrazol-3-yl)benzoyl]spiro[chromene-2,4′-piperidin]-4(3H)-one] | 6.32
14 | COc1ccc2c(c1)OC1(CCN(C(=O)c3cccc(-c4cc[nH]n4)c3)CC1)CC2=O [Ex. M25, 7-methoxy-1′-[3-(1H-pyrazol-3-yl)benzoyl]spiro[chromene-2,4′-piperidin]-4(3H)-one] | 6.32
15 | COc1cccc2c1C(=O)CC1(CCN(C(=O)c3cccc(-c4cc[nH]n4)c3)CC1)O2 [Ex. M27, 5-methoxy-1′-[3-(1H-pyrazol-3-yl)benzoyl]spiro[chromene-2,4′-piperidin]-4(3H)-one] | 6.26
16 | CN(C)C(=O)c1ccc2c(c1)C(=O)CC1(CCN(C(=O)c3cccc(-c4cc[nH]n4)c3)CC1)O2 [Ex. M29, N,N-dimethyl-4-oxo-1′-[3-(1H-pyrazol-3-yl)benzoyl]-3,4-dihydrospiro[chromene-2,4′-piperidine]-6-carboxamide] | 6.24
17 | O=C1CC2(CCN(C(=O)c3cccc(-c4cc[nH]n4)c3)CC2)Oc2ccc(Cl)cc21 [Ex. M30, 6-Chloro-1′-[3-(1H-pyrazol-3-yl)benzoyl]spiro[chromene-2,4′-piperidin]-4(3H)-one] | 6.21
18 | COc1cc2c(cc1OC)C(=O)CC1(CCN(C(=O)c3cccc(-c4cc[nH]n4)c3)CC1)O2 [Ex. M31, 6,7-Dimethoxy-1′-[3-(1H-pyrazol-3-yl)benzoyl]spiro[chromene-2,4′-piperidin]-4(3H)-one] | 6.16
19 | O=C1CC2(CCN(C(=O)c3cccc(-c4cc[nH]n4)c3)CC2)Oc2ccc(C(=O)N3CCOCC3)cc21 [Ex. M32, 6-(morpholin-4-ylcarbonyl)-1′-[3-(1H-pyrazol-3-yl)benzoyl]spiro[chromene-2,4′-piperidin]-4(3H)-one] | 6.13
20 | O=C1CC2(CCN(C(=O)c3cccc(-c4cc[nH]n4)c3)CC2)Oc2cc(F)ccc21 [Ex. M34, 7-Fluoro-1′-[3-(1H-pyrazol-3-yl)benzoyl]spiro[chromene-2,4′-piperidin]-4(3H)-one] | 6.09
21 | O=C1CC2(CCN(C(=O)c3cccc(-c4cc[nH]n4)c3)CC2)Oc2c(Cl)cc(Cl)cc21 [Ex. M35, 6,8-dichloro-1′-[3-(1H-pyrazol-3-yl)benzoyl]spiro[chromene-2,4′-piperidin]-4(3H)-one] | 5.85
22 | O=C1CC2(CCN(C(=O)c3cccc(-c4cc[nH]n4)c3)CC2)Oc2cc(Cl)c(F)cc21 [Ex. M36, 7-chloro-6-fluoro-1-[3-(1H-pyrazol-3-yl)benzoyl]spiro[chromene-2,4′-piperidin]-4(3H)-one] | 5.70

Same assay, conditions: Table of Examples O1-O4

Row | Compound | pIC50
23 | O=C1CC2(CCN(C(=O)c3cccc(-c4ccn[nH]4)c3)CC2)Oc2ccccc21 [Ex. O1, 1′-[3-(1H-pyrazol-5-yl)benzoyl]spiro[chromene-2,4′-piperidin]-4(3H)-one] | 6.04
24 | COc1cc(Cl)c2c(c1)OC1(CCN(C(=O)c3cccc(-c4ccn[nH]4)c3)CC1)CC2=O [Ex. O2, 5-chloro-7-methoxy-1′-[3-(1H-pyrazol-5-yl)benzoyl]spiro[chromene-2,4′-piperidin]-4(3H)-one] | 7.26
25 | COc1cc(Cl)cc2c1C(=O)CC1(CCN(C(=O)c3cccc(-c4ccn[nH]4)c3)CC1)O2 [Ex. O3, 7-chloro-5-methoxy-1′-[3-(1H-pyrazol-5-yl)benzoyl]spiro[chromene-2,4′-piperidin]-4(3H)-one] | 6.34
26 | COc1cc(C)c2c(c1)OC1(CCN(C(=O)c3cccc(-c4ccn[nH]4)c3)CC1)CC2=O [Ex. O4, 7-methoxy-5-methyl-1′-[3-(1H-pyrazol-5-yl)benzoyl]spiro[chromene-2,4′-piperidin]-4(3H)-one] | 6.33

Same assay, conditions: Table of Examples P1-P15

Row | Compound | pIC50
27 | Cc1cc2c(cc1C)C(=O)CC1(CCN(C(=O)c3cccc(-c4cc(C(F)(F)F)[nH]n4)c3)CC1)O2 [Ex. P1, 6,7-dimethyl-1′-{3-[5-(trifluoromethyl)-1H-pyrazol-3-yl]benzoyl}spiro-[chromene-2,4′-piperidin]-4(3H)-one] | 6.67
28 | Cc1cc2c(cc1Cl)C(=O)CC1(CCN(C(=O)c3cccc(-c4cc(C(F)(F)F)[nH]n4)c3)CC1)O2 [Ex. P2, 6-chloro-7-methyl-1′-{3-[5-(trifluoromethyl)-1H-pyrazol-3-yl]benzoyl}spiro[chromene-2,4′-piperidin]-4(3H)-one trifluoroacetic acid salt] | 6.37
29 | Cc1cc2c(cc1C)C(=O)CC1(CCN(C(=O)c3cc(-c4ccn(C)n4)ccc3Cl)CC1)O2 [Ex. P3, 1′-[2-chloro-5-(1-methyl-1H-pyrazol-3-yl)benzoyl]-6,7-dimethylspiro[chromene-2,4′-piperidin]-4(3H)-one] | > 5.52
30 | Cc1cc2c(cc1C)C(=O)CC1(CCN(C(=O)c3cc(-c4cc[nH]n4)ccc3F)CC1)O2 [Ex. P4, 1′-[2-fluoro-5-(1H-pyrazol-3-yl)benzoyl]-6,7-dimethylspiro[chromene-2,4′-piperidin]-4(3H)-one trifluoroacetic acid salt] | > 5.52
31 | Cc1cc2c(cc1C)C(=O)CC1(CCN(C(=O)c3cc(-c4cc[nH]n4)ccc3Cl)CC1)O2 [Ex. P5, 1′-[2-chloro-5-(1H-pyrazol-3-yl)benzoyl]-6,7-dimethylspiro[chromene-2,4′-piperidin]-4(3H)-one trifluoroacetic acid salt] | > 5.52
32 | Cc1cc2c(cc1C)C(=O)CC1(CCN(C(=O)c3cc(-c4cc[nH]n4)ccc3O)CC1)O2 [Ex. P6, 1′-[2-hydroxy-5-(1H-pyrazol-3-yl)benzoyl]-6,7-dimethylspiro[chromene-2,4′-piperidin]-4(3H)-one trifluoroacetic acid salt] | > 5.52
33 | CCOc1ccc(-c2cc[nH]n2)cc1C(=O)N1CCC2(CC1)CC(=O)c1cc(C)c(C)cc1O2 [Ex. P7, 1′-[2-ethoxy-5-(1H-pyrazol-3-yl)benzoyl]-6,7-dimethylspiro[chromene-2,4′-piperidin]-4(3H)-one trifluoroacetic acid salt] | > 5.52
34 | CCOc1ccc(-c2cc[nH]n2)cc1C(=O)N1CCC2(CC1)CC(=O)c1cc(C)c(C)cc1O2 [Ex. P8, 1′-[2-ethoxy-5-(1H-pyrazol-3-yl)benzoyl]-6,7-dimethylspiro[chromene-2,4′-piperidin]-4(3H)-one] | 6.21
35 | CCOc1ccc(-c2cc[nH]n2)cc1C(=O)N1CCC2(CC1)CC(=O)c1cc(Cl)c(C)cc1O2 [Ex. P9, 6-chloro-1′-[2-ethoxy-5-(1H-pyrazol-3-yl)benzoyl]-7-methylspiro[chromene-2,4′-piperidin]-4(3H)-one] | 5.97
